Data as given in patent publication US12065445B2, “CDK2 inhibitors and methods of using the same” (Cedilla Therapeutics, Inc., priority 2021, dated 2024).

Tested on: Kuramochi cells
Experiment: BrdU Cell Proliferation Assay
Format: cell-based
Settings: read-out: BrdU - KURAMOCHI.1: IC50
Summary of the method: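 Kuramochi cells were seeded at 2,000 cells/well, adhered overnight, then treated with a 10-point, 3-fold compound dilution series for 4 days. Proliferation was measured by a 1-hour BrdU pulse, anti-BrdU peroxidase colorimetric ELISA and 450 nm absorbance. Values were background-subtracted and normalized to DMSO wells.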

Structure (SMILES)	IC50 [µM]
CCCCC1CC1C(=O)N1CC2(CN(C(=O)c3cnn(Cc4ccccc4)c3)C[C@@H]2C(=O)N[C@H](C(=O)NC)[C@@H](C)OCc2ccccc2)C1 (some centres unmarked) [I-94B]	> 10
CNC(=O)[C@@H](NC(=O)[C@@H]1CN(C(=O)c2cnn(CC3CCOCC3)c2)CC12CN(C(=O)[C@H]1CC1(C)C)C2)[C@@H](C)OCc1ccccc1 [I-95A]	> 10
CNC(=O)[C@@H](NC(=O)[C@H]1CN(C(=O)c2cnn(CC3CCOCC3)c2)CC12CN(C(=O)[C@H]1CC1(C)C)C2)[C@@H](C)OCc1ccccc1 [I-95B]	> 10
CC1(C)C[C@@H]1C(=O)N1CC2(CN(C(=O)c3cnn(Cc4ccccc4)c3)C[C@H]2C(=O)NCCOCc2ccccc2)C1 [I-96A]	> 10
CC1(C)C[C@@H]1C(=O)N1CC2(CN(C(=O)c3cnn(Cc4ccccc4)c3)C[C@@H]2C(=O)NCCOCc2ccccc2)C1 [I-96B]	> 10
C[C@@H](OCc1ccccc1)[C@H](NC(=O)C1CN(C(=O)c2cnn(Cc3ccccc3)c2)CC12CN(C(=O)[C@H]1CC1(C)C)C2)C(=O)N1CCCC(CO)C1 (some centres unmarked) [I-98]	> 10
CNC(=O)[C@H](COCc1ccccc1)NC(=O)[C@@H]1CN(C(=O)c2cnn(Cc3ccccc3)c2)CC12CN(C(=O)C(C)(C)C)C2 [I-100A]	> 10
CNC(=O)[C@H](COCc1ccccc1)NC(=O)[C@H]1CN(C(=O)c2cnn(Cc3ccccc3)c2)CC12CN(C(=O)C(C)(C)C)C2 [I-100B]	> 10
CNC(=O)[C@H](CCCc1ccccc1)NC(=O)[C@@H]1CN(C(=O)c2cnn(Cc3ccccc3)c2)CC12CN(C(=O)[C@H]1CC1(C)C)C2 [I-101A]	> 10
CNC(=O)[C@H](CCCc1ccccc1)NC(=O)[C@H]1CN(C(=O)c2cnn(Cc3ccccc3)c2)CC12CN(C(=O)[C@H]1CC1(C)C)C2 [I-101B]	> 10
CNC(=O)[C@@H](NC(=O)[C@@H]1CN(C(=O)c2cnn(Cc3ccccc3)c2)CC12CN(C(=O)C1(CCOC)CC1)C2)[C@@H](C)OCc1ccccc1 [I-102A]	> 10
CNC(=O)[C@@H](NC(=O)[C@H]1CN(C(=O)c2cnn(Cc3ccccc3)c2)CC12CN(C(=O)C1(CCOC)CC1)C2)[C@@H](C)OCc1ccccc1 [I-102B]	> 10
CNC(=O)[C@@H](NC(=O)[C@@H]1CN(C(=O)c2cncs2)CC12CN(C(=O)CC1CC1)C2)[C@@H](C)OCC1CCCCC1 [I-103A]	> 10
CNC(=O)[C@@H](NC(=O)[C@H]1CN(C(=O)c2cncs2)CC12CN(C(=O)CC1CC1)C2)[C@@H](C)OCC1CCCCC1 [I-103B]	> 10
C[C@@H](OCc1ccccc1)[C@H](NC(=O)C1CN(C(=O)c2cnn(Cc3ccccc3)c2)CC12CN(C(=O)[C@H]1CC1(C)C)C2)C(=O)N1CC2(CCC2)C1 (some centres unmarked) [I-106]	0.5 to 5
CNC(=O)[C@@H](NC(=O)[C@@H]1CN(C(=O)c2cnn(Cc3ccccc3)c2)CC12CN(C(=O)C1(C(F)(F)F)CC1)C2)[C@@H](C)OCc1ccccc1 [I-108A]	> 10
CNC(=O)[C@@H](NC(=O)[C@H]1CN(C(=O)c2cnn(Cc3ccccc3)c2)CC12CN(C(=O)C1(C(F)(F)F)CC1)C2)[C@@H](C)OCc1ccccc1 [I-108B]	> 10
CNC(=O)[C@@H](NC(=O)[C@@H]1CN(C(=O)c2cnn(Cc3ccccc3)c2)CC12CN(C(=O)[C@H]1CC1(C)C)C2)[C@@H](C)OCC1CCCC1 [I-110A]	0.5 to 5
CNC(=O)[C@@H](NC(=O)[C@@H]1CN(C(=O)c2n[nH]c3ccccc23)CC12CN(C(=O)[C@H]1CC1(C)C)C2)[C@@H](C)OCc1ccccc1 [I-112A]	> 10
CNC(=O)[C@@H](NC(=O)[C@H]1CN(C(=O)c2n[nH]c3ccccc23)CC12CN(C(=O)[C@H]1CC1(C)C)C2)[C@@H](C)OCc1ccccc1 [I-112B]	> 10
CNC(=O)[C@H](COCc1ccccc1)NC(=O)[C@@H]1CN(C(=O)c2cnn(Cc3ccccc3)c2)CC12CN(C(=O)C1(C(F)(F)F)CC1)C2 [I-113A, (S)-6-(1-benzyl-1H-pyrazole-4-carbonyl)-N—((S)-3-(benzyloxy)-1-(methylamino)-1-oxopropan-2-yl)-2-(1-(trifluoromethyl)cyclopropane-1-carbonyl)-2,6-diazaspiro[3.4]octane-8-carboxamide]	> 10
CNC(=O)[C@@H](NC(=O)[C@@H]1CN(C(=O)c2cnn(Cc3ccccc3)c2)CC12CN(C(=O)C1(C3CC3)CC1)C2)[C@@H](C)OCc1ccccc1 [I-114A]	> 10
CNC(=O)[C@@H](NC(=O)[C@H]1CN(C(=O)c2cnn(Cc3ccccc3)c2)CC12CN(C(=O)C1(C3CC3)CC1)C2)[C@@H](C)OCc1ccccc1 [I-114B]	> 10
CNC(=O)[C@@H](NC(=O)[C@@H]1CN(C(=O)c2cnn(Cc3ccccc3)c2)CC12CN(C(=O)C1(CC3CC3)CC1)C2)[C@@H](C)OCc1ccccc1 [I-116A]	> 10
CNC(=O)[C@@H](NC(=O)[C@H]1CN(C(=O)c2cnn(Cc3ccccc3)c2)CC12CN(C(=O)C1(CC3CC3)CC1)C2)[C@@H](C)OCc1ccccc1 [I-116B]	> 10
CNC(=O)[C@@H](NC(=O)[C@@H]1CN(C(=O)c2cnn(Cc3ccccc3)c2)CC12CN(C(=O)C1(CCF)CC1)C2)[C@@H](C)OCc1ccccc1 [I-117A]	> 10
CNC(=O)[C@@H](NC(=O)[C@H]1CN(C(=O)c2cnn(Cc3ccccc3)c2)CC12CN(C(=O)C1(CCF)CC1)C2)[C@@H](C)OCc1ccccc1 [I-117B]	> 10

Structure (SMILES)	IC50 [µM]
CNC(=O)[C@@H](NC(=O)[C@@H]1CN(C(=O)c2cnn(Cc3ccccc3)c2)CC12CN(C(=O)[C@H]1CC1(C)C)C2)[C@@H](C)OCC1CCOCC1 [I-119A]	> 10
CNC(=O)[C@@H](NC(=O)[C@H]1CN(C(=O)c2cnn(Cc3ccccc3)c2)CC12CN(C(=O)[C@H]1CC1(C)C)C2)[C@@H](C)OCC1CCOCC1 [I-119B]	> 10
CC1(C)C[C@@H]1C(=O)N1CC2(CN(C(=O)c3cnn(Cc4ccccc4)c3)C[C@H]2C(=O)N[C@H]2CCc3cc(Cl)ccc32)C1 [I-120A]	> 10
CC1(C)C[C@@H]1C(=O)N1CC2(CN(C(=O)c3cnn(Cc4ccccc4)c3)C[C@@H]2C(=O)N[C@H]2CCc3cc(Cl)ccc32)C1 [I-120B]	> 10
CNC(=O)[C@@H](NC(=O)[C@@H]1CN(C(=O)c2cnn(CC3CCOCC3)c2)CC12CN(C(=O)[C@H]1CC1(C)C)C2)[C@@H](C)OCC1CCCCC1 [I-121A]	5 to 10
CNC(=O)[C@@H](NC(=O)[C@H]1CN(C(=O)c2cnn(CC3CCOCC3)c2)CC12CN(C(=O)[C@H]1CC1(C)C)C2)[C@@H](C)OCC1CCCCC1 [I-121B]	> 10
COCCNC(=O)[C@@H]1CN(C(=O)c2cnn(Cc3ccccc3)c2)CC12CN(C(=O)[C@H]1CC1(C)C)C2 [I-122A]	> 10
COCCNC(=O)[C@H]1CN(C(=O)c2cnn(Cc3ccccc3)c2)CC12CN(C(=O)[C@H]1CC1(C)C)C2 [I-122B]	> 10
CNC(=O)[C@@H](NC(=O)[C@H]1CN(C(=O)c2cnn(Cc3ccccc3)c2)CC12CN(C(=O)[C@H]1CC1(C)C)C2)[C@@H](C)OCC1CCCCC1 [I-123B]	> 10
C[C@@H]1C[C@H](C)CN(C(=O)[C@@H](NC(=O)C2CN(C(=O)c3cn[nH]c3)CC23CN(C(=O)[C@H]2CC2(C)C)C3)[C@@H](C)OCc2ccccc2)C1 (some centres unmarked) [I-124]	> 10
COc1cccc(CNC(=O)[C@@H]2CN(C(=O)c3cnn(Cc4ccccc4)c3)CC23CN(C(=O)[C@H]2CC2(C)C)C3)n1 [I-126A]	> 10
COc1cccc(CNC(=O)[C@H]2CN(C(=O)c3cnn(Cc4ccccc4)c3)CC23CN(C(=O)[C@H]2CC2(C)C)C3)n1 [I-126B]	> 10
C[C@H](NC(=O)[C@@H]1CN(C(=O)c2cnn(Cc3ccccc3)c2)CC12CN(C(=O)[C@H]1CC1(C)C)C2)c1cccc(F)c1 [I-127A]	> 10
C[C@H](NC(=O)[C@H]1CN(C(=O)c2cnn(Cc3ccccc3)c2)CC12CN(C(=O)[C@H]1CC1(C)C)C2)c1cccc(F)c1 [I-127B]	> 10
C[C@@H](NC(=O)[C@@H]1CN(C(=O)c2cnn(Cc3ccccc3)c2)CC12CN(C(=O)[C@H]1CC1(C)C)C2)c1cccc(F)c1 [I-128A]	> 10
C[C@@H](NC(=O)[C@H]1CN(C(=O)c2cnn(Cc3ccccc3)c2)CC12CN(C(=O)[C@H]1CC1(C)C)C2)c1cccc(F)c1 [I-128B]	> 10
CNC(=O)[C@@H](NC(=O)[C@H]1CN(C(=O)c2cncs2)CC12CN(C(=O)[C@H]1CC1(C)C)C2)[C@@H](C)OCC1CCCCC1 [I-129B]	> 10
CNC(=O)[C@@H](NC(=O)[C@H]1CN(C(=O)c2cnn(Cc3ccccc3)c2)CC12CN(C(=O)[C@H]1CC1(C)C)C2)[C@@H](C)OCC(C)(C)C [I-130B]	> 10
CO[C@H]1COCC[C@@H]1NC(=O)[C@H]1CN(C(=O)c2cnn(Cc3ccccc3)c2)CC12CN(C(=O)[C@H]1CC1(C)C)C2 [I-131B]	> 10
CC1(C)C[C@@H]1C(=O)N1CC2(CN(C(=O)c3cnn(Cc4ccccc4)c3)C[C@H]2C(=O)N[C@H]2CCc3cc(Cl)ccc32)C1 [I-133A]	> 10
CNC(=O)[C@@H](NC(=O)[C@H]1CN(C(=O)c2cnn(Cc3ccc(F)cc3)c2)CC12CN(C(=O)[C@H]1CC1(C)C)C2)[C@@H](C)OCc1ccc(F)cc1 [I-136B]	> 10
CC1(C)C[C@@H]1C(=O)N1CC2(CN(C(=O)c3cnn(Cc4ccccc4)c3)C[C@H]2C(=O)Nc2ccc(Cc3ccccc3)nc2)C1 [I-139, (S)-6-(1-benzyl-1H-pyrazole-4-carbonyl)-N-(6-benzylpyridin-3-yl)-2-((S)-2,2-dimethylcyclopropane-1-carbonyl)-2,6-diazaspiro[3.4]octane-8-carboxamide]	> 10
CC1(C)C[C@@H]1C(=O)N1CC2(CN(C(=O)c3cnn(Cc4ccccc4)c3)C[C@@H]2C(=O)N[C@H]2C[C@@H]2c2cccc(Cl)c2)C1 [I-140B]	> 10
CNC(=O)[C@@H](NC(=O)[C@@H]1CN(C(=O)c2cnn(Cc3ccccc3)c2)CC12CN(C(=O)[C@H]1CC1(C)C)C2)[C@@H](C)OCC1CCC(C(F)(F)F)CC1 (some centres unmarked) [I-141A]	0.5 to 5
COC(=O)C1(NC(=O)[C@H]2CN(C(=O)c3cnn(Cc4ccccc4)c3)CC23CN(C(=O)[C@H]2CC2(C)C)C3)COC1 [I-142A]	> 10
COC(=O)C1(NC(=O)[C@@H]2CN(C(=O)c3cnn(Cc4ccccc4)c3)CC23CN(C(=O)[C@H]2CC2(C)C)C3)COC1 [I-142B]	> 10
